From article PMC7587356, “High-Throughput Screening for Inhibitors of the SARS-CoV-2 Protease Using a FRET-Biosensor” (Molecules, 2020)
Structures can show the parent of a compound that is named as a salt. Where two headings read alike, the source gives them in different places.

Biological target: SARS-CoV-2 3CLpro (Severe acute respiratory syndrome coronavirus 2, UniProt P0DTD1)
Assay: biochemical
Assay type: biochemical
Design: Replicate_1 / Replicate_2 / mean / mean (LOPAC_screen_w_protease): unit not given here
Details: for inhibition at 5 µM: 4 h; for mean (LOPAC screen with protease) / Replicate_1 (LOPAC screen with protease) / Replicate_2 (LOPAC screen with protease): primary screen at 5 µM
[1] = sheet LOPAC_screen_w_protease, LOPAC1280 primary screen with protease, 5 µM compound, mean of the two replicates, read-out: mean
[2] = sheet LOPAC_screen_w_protease, LOPAC1280 primary screen with protease, 5 µM compound, replicate 1, read-out: Replicate_1
[3] = sheet LOPAC_screen_w_protease, LOPAC1280 primary screen with protease, 5 µM compound, replicate 2, read-out: Replicate_2
[4] = sheet LOPAC_screen_w_protease, mean of two replicates
[5] = sheet LOPAC_screen_w_protease, replicate 1
[6] = sheet LOPAC_screen_w_protease, replicate 2
[7] = sheet LOPAC_screen_w_protease, LOPAC1280 primary screen at 5 µM, with protease, mean of the two replicates
[8] = sheet LOPAC_screen_w_protease, LOPAC1280 primary screen at 5 µM, with protease, replicate 1
[9] = sheet LOPAC_screen_w_protease, LOPAC1280 primary screen at 5 µM, with protease, replicate 2
[10] = sheet LOPAC_screen_w_protease, primary screen with protease, mean of two replicates
[11] = sheet LOPAC_screen_w_protease, primary screen with protease, replicate 1
[12] = sheet LOPAC_screen_w_protease, primary screen with protease, replicate 2
[13] = LOPAC1280 primary screen with protease, 5 µM compound, mean of two replicates
[14] = LOPAC1280 primary screen with protease, 5 µM compound, replicate 1
[15] = LOPAC1280 primary screen with protease, 5 µM compound, replicate 2
[16] = LOPAC1280 primary screen with protease, 5 µM compound, replicate 1, read-out: Replicate_1 (LOPAC_screen_w_protease)
[17] = LOPAC1280 primary screen with protease, 5 µM compound, replicate 2, read-out: Replicate_2 (LOPAC_screen_w_protease)
[18] = sheet LOPAC_screen_w_protease, LOPAC1280 at 5 µM, mean of two replicates
[19] = sheet LOPAC_screen_w_protease, LOPAC1280 at 5 µM, replicate 1
[20] = sheet LOPAC_screen_w_protease, LOPAC1280 at 5 µM, replicate 2
[21] = sheet LOPAC_screen_w_protease, primary screen of LOPAC1280 at 5 µM with protease, mean of the two replicates
[22] = sheet LOPAC_screen_w_protease, primary screen of LOPAC1280 at 5 µM with protease, replicate 1
[23] = sheet LOPAC_screen_w_protease, primary screen of LOPAC1280 at 5 µM with protease, replicate 2
[24] = sheet LOPAC_screen_w_protease, LOPAC1280 at 5 µM, mean of two replicates, read-out: mean
[25] = sheet LOPAC_screen_w_protease, LOPAC1280 at 5 µM, replicate 1, read-out: Replicate_1
[26] = sheet LOPAC_screen_w_protease, LOPAC1280 at 5 µM, replicate 2, read-out: Replicate_2
[27] = sheet LOPAC_screen_w_protease, primary screen with protease, compound at 5 µM, mean of two replicates
[28] = sheet LOPAC_screen_w_protease, primary screen with protease, compound at 5 µM, replicate 1
[29] = sheet LOPAC_screen_w_protease, primary screen with protease, compound at 5 µM, replicate 2
[30] = LOPAC1280 primary screen with protease, 5 µM compound, mean of the two replicates

Structure (SMILES): CCCN(CCC)C(=O)C(CCC(=O)O)NC(=O)c1ccccc1 (stereo not drawn) [Proglumide]
- inhibition at 5 µM [1]: 4.27%
- inhibition at 5 µM [2]: 4.11%
- inhibition at 5 µM [3]: 4.43%

Structure (SMILES): N=C(N)c1ccc(N)cc1 [4-Aminobenzamidine dihydrochloride]
- inhibition at 5 µM (sheet LOPAC_screen_w_protease, primary screen with protease, 5 µM, mean of two replicates, read-out: mean): -0.229%
- inhibition at 5 µM (sheet LOPAC_screen_w_protease, primary screen with protease, 5 µM, replicate 1, read-out: Replicate_1): 1.52%
- inhibition at 5 µM (sheet LOPAC_screen_w_protease, primary screen with protease, 5 µM, replicate 2, read-out: Replicate_2): -1.98%

Structure (SMILES): CC1CNCCN1S(=O)(=O)c1cccc2cnccc12.Cl.Cl (stereo not drawn)
- mean (LOPAC screen with protease) [4]: 12.1111
- Replicate_1 (LOPAC screen with protease) [5]: 12.4365
- Replicate_2 (LOPAC screen with protease) [6]: 11.7856

Structure (SMILES): CN(C)CCC(c1ccc(Cl)cc1)c1ccccn1.O=C(O)/C=C\C(=O)O (racemic) [(±)-Chlorpheniramine maleate]
- Replicate_1: 0.5322
- Replicate_2: -0.472
- mean: 0.03007

Structure (SMILES): COc1cc(C(O)CO)ccc1OS(=O)(=O)[O-].[K+] (stereo not drawn) [MHPG sulfate potassium]
- mean [7]: 0.6725
- Replicate_1 [8]: 2.348
- Replicate_2 [9]: -1.003

Structure (SMILES): Cc1ccc(S(=O)(=O)N[C@@H](CCCCN)C(=O)CCl)cc1.Cl
- mean (LOPAC screen with protease) [4]: 20.7427
- Replicate_1 (LOPAC screen with protease) [5]: 21.9131
- Replicate_2 (LOPAC screen with protease) [6]: 19.5724

Structure (SMILES): CCC1(c2ccc(N)cc2)CCC(=O)NC1=O (racemic) [(±)-p-Aminoglutethimide]
- mean [10]: 2.443
- Replicate_1 [11]: 1.25
- Replicate_2 [12]: 3.637

Structure (SMILES): CC(C)NCC(O)c1ccc(NS(C)(=O)=O)cc1.Cl (racemic) [(±)-Sotalol hydrochloride]
- mean (LOPAC_screen_w_protease) [13]: 1.4398
- Replicate_1 (LOPAC_screen_w_protease) [14]: 1.054
- Replicate_2 (LOPAC_screen_w_protease) [15]: 1.826

Structure (SMILES): CN(C)CCCN1c2ccccc2Sc2ccc(C(F)(F)F)cc21 [Triflupromazine hydrochloride]
- inhibition at 5 µM (sheet LOPAC_screen_w_protease, LOPAC1280 primary screen at 5 µM, with protease, mean of the two replicates, read-out: mean): 0.692%
- inhibition at 5 µM (sheet LOPAC_screen_w_protease, LOPAC1280 primary screen at 5 µM, with protease, replicate 1, read-out: Replicate_1): 1.65%
- inhibition at 5 µM (sheet LOPAC_screen_w_protease, LOPAC1280 primary screen at 5 µM, with protease, replicate 2, read-out: Replicate_2): -0.271%

Structure (SMILES): COc1ccc2c(c1O)-c1cccc3c1[C@@H](C2)N(C)CC3 [R(−)-apocodeine, reference compound]
- inhibition of 3CLpro in the primary screen (5 µM): 6%

Structure (SMILES): COc1ccc(CC(C)NCC(O)c2ccc(O)c(NC=O)c2)cc1 (stereo not drawn) [Formoterol]
- inhibition at 5 µM [16]: 1.5%
- inhibition at 5 µM [17]: 1.19%
- mean (LOPAC_screen_w_protease) [13]: 1.3452

Structure (SMILES): COc1cc2c(cc1C(F)(F)F)N(C(=O)Nc1cc(F)cc(-c3cccnc3)c1)CC2 [SB 228357]
- mean [10]: 2.5367
- Replicate_1 [11]: 3.509
- Replicate_2 [12]: 1.565

Structure (SMILES): CC(Oc1ccc(Oc2cnc3ccc(Cl)cc3n2)cc1)C(=O)O (stereo not drawn) [XK469]
- mean [18]: 1.32
- Replicate_1 [19]: 0.4248
- Replicate_2 [20]: 2.215

Structure (SMILES): CC1(C)CCC(NC(=O)[C@@H](N)CCC(=O)O)CC1 [CR 2249]
- inhibition at 5 µM [1]: 5.2%
- inhibition at 5 µM [2]: 4.44%
- inhibition at 5 µM [3]: 5.96%

Structure (SMILES): CC(C)c1ccc2c(c1)c(SC(C)(C)C)c(CC(C)(C)C(=O)O)n2Cc1ccc(Cl)cc1 [MK-886]
- mean [21]: 3.5784
- Replicate_1 [22]: 4.4392
- Replicate_2 [23]: 2.7176

Structure (SMILES): CN(C)CCOC(C)(c1ccccc1)c1ccccn1 (stereo not drawn) [Doxylamine succinate]
- inhibition at 5 µM [24]: 1.3%
- inhibition at 5 µM [25]: 1.58%
- inhibition at 5 µM [26]: 1.01%

Structure (SMILES): Cl.O[Si](CCCN1CCCCC1)(c1ccc(F)cc1)C1CCCCC1 (stereo not drawn)
- mean [18]: 1.239
- Replicate_1 [19]: 2.5476
- Replicate_2 [20]: -0.06894

Structure (SMILES): CNC(=C[N+](=O)[O-])NCCSCc1ccc(CN(C)C)o1 [Ranitidine hydrochloride]
- inhibition at 5 µM (read-out: Replicate_1 (LOPAC_screen_w_protease)): 2.07%
- inhibition at 5 µM (read-out: Replicate_2 (LOPAC_screen_w_protease)): 1.3%

Structure (SMILES): CC1=C(/C=C/C(C)=C/C=C/C(C)=C/C(=O)Nc2ccc(O)cc2)C(C)(C)CCC1 [Retinoic acid p-hydroxyanilide]
- mean [10]: 2.295
- Replicate_1 [11]: 3.365
- Replicate_2 [12]: 1.2239

Structure (SMILES): CCN(CC)c1ncnc2c1ncn2[C@@H]1O[C@H](COP(=O)([O-])OP(=O)([O-])C(Br)(Br)P(=O)([O-])O)[C@@H](O)[C@H]1O.[Na+].[Na+].[Na+] [ARL 67156 trisodium salt]
- mean [27]: 2.893
- Replicate_1 [28]: 2.692
- Replicate_2 [29]: 3.094

Structure (SMILES): Br.Br.N=C(N)SCCN
- mean (LOPAC_screen_w_protease) [30]: 2.032
- Replicate_1 (LOPAC_screen_w_protease) [14]: 2.956
- Replicate_2 (LOPAC_screen_w_protease) [15]: 1.108

Structure (SMILES): NC(N)=NCc1cccc(I)c1.NC(N)=NCc1cccc(I)c1.O=S(=O)(O)O [m-Iodobenzylguanidine hemisulfate]
- mean [10]: 2.496
- Replicate_1 [11]: 1.063
- Replicate_2 [12]: 3.929

Structure (SMILES): COC(=O)Nc1nc2ccc(C(=O)c3cccs3)cc2[nH]1 [Nocodazole]
- inhibition at 5 µM [1]: 4.68%
- inhibition at 5 µM [2]: 2.87%
- inhibition at 5 µM [3]: 6.49%

Structure (SMILES): Cl.Cl.NCCC(=O)NCCc1c[nH]cn1 [Carcinine dihydrochloride]
- mean (LOPAC_screen_w_protease) [13]: 1.47
- Replicate_1 (LOPAC_screen_w_protease) [14]: -0.04434
- Replicate_2 (LOPAC_screen_w_protease) [15]: 2.985

Structure (SMILES): Cc1oncc1C(=O)Nc1ccc(C(F)(F)F)cc1 [Leflunomide]
- inhibition at 5 µM [24]: 1.27%
- inhibition at 5 µM [25]: 0.0888%
- inhibition at 5 µM [26]: 2.44%

Structure (SMILES): N#CC(=Cc1ccc(O)c(O)c1)C(=O)NCCc1ccccc1 [Tyrphostin AG 698]
- mean [27]: 2.9723
- Replicate_1 [28]: 3.137
- Replicate_2 [29]: 2.808

Structure (SMILES): CCS(=O)(=O)Nc1cccc(C(=C2CCCCC2)c2c[nH]cn2)c1 [A-315456]
- mean [7]: 0.823
- Replicate_1 [8]: 1.277
- Replicate_2 [9]: 0.3687

Structure (SMILES): Br.CCCN1CC[C@@H]2c3cc(O)ccc3CC[C@@H]21 (racemic) [cis-(±)-8-OH-PBZI hydrobromide]
- mean [21]: 4.0009
- Replicate_1 [22]: 4.218
- Replicate_2 [23]: 3.784

Structure (SMILES): N=C(N)SCCc1cnc[nH]1 [Imetit dihydrobromide]
- inhibition at 5 µM (sheet LOPAC_screen_w_protease, primary screen with protease, mean of two replicates, read-out: mean): 2.25%
- inhibition at 5 µM (sheet LOPAC_screen_w_protease, primary screen with protease, replicate 1, read-out: Replicate_1): 1.12%
- inhibition at 5 µM (sheet LOPAC_screen_w_protease, primary screen with protease, replicate 2, read-out: Replicate_2): 3.38%

Structure (SMILES): N#C/C(=C\c1ccc(O)c(O)c1)C(=O)NCc1ccccc1 [Tyrphostin AG 490]
- inhibition at 5 µM (sheet LOPAC_screen_w_protease, primary screen with protease, compound at 5 µM, mean of two replicates, read-out: mean): 2.61%
- inhibition at 5 µM (sheet LOPAC_screen_w_protease, primary screen with protease, compound at 5 µM, replicate 1, read-out: Replicate_1): 3.18%
- inhibition at 5 µM (sheet LOPAC_screen_w_protease, primary screen with protease, compound at 5 µM, replicate 2, read-out: Replicate_2): 2.05%

Structure (SMILES): O=C(O)c1cc(=O)c2ccccc2[nH]1 [Kynurenic acid]
- inhibition at 5 µM [16]: 3.13%
- inhibition at 5 µM [17]: 0.793%
- mean (LOPAC_screen_w_protease) [30]: 1.961

Structure (SMILES): Nc1cc(=O)[nH]c(N)n1 [2,6-Diamino-4-pyrimidinone]
- mean [21]: 3.421
- Replicate_1 [22]: 3.441
- Replicate_2 [23]: 3.4

Structure (SMILES): c1ccc(C2CC2)c(OCC2=NCCN2)c1 [Cirazoline hydrochloride]
- inhibition at 5 µM [16]: 2.66%
- inhibition at 5 µM [17]: 1%
- mean (LOPAC_screen_w_protease) [30]: 1.832

Structure (SMILES): Cl.c1ccc([C@H]2CN3CCSC3=N2)cc1 [(-)-Tetramisole hydrochloride]
- Replicate_1: 0.0709
- Replicate_2: 1.236
- mean: 0.6536

Structure (SMILES): O=C(C1CCCCC1)N1CC(=O)N2CCc3ccccc3C2C1 (stereo not drawn) [Praziquantel]
- inhibition at 5 µM (sheet LOPAC_screen_w_protease, primary screen of LOPAC1280 at 5 µM with protease, mean of the two replicates, read-out: mean): 3.73%
- inhibition at 5 µM (sheet LOPAC_screen_w_protease, primary screen of LOPAC1280 at 5 µM with protease, replicate 1, read-out: Replicate_1): 3.31%
- inhibition at 5 µM (sheet LOPAC_screen_w_protease, primary screen of LOPAC1280 at 5 µM with protease, replicate 2, read-out: Replicate_2): 4.15%

Structure (SMILES): CC12NC(Cc3ccccc31)c1ccccc12.O=C(O)/C=C\C(=O)O (single isomer, unassigned; (+)) [(+)-MK-801 hydrogen maleate]
- mean [27]: 2.6873
- Replicate_1 [28]: 4.9061
- Replicate_2 [29]: 0.4685
